Experimental data from US10167300B2, “Metalloenzyme inhibitor compounds as fungicides” (priority 2014, dated 2019).
Like-named read-outs stand apart in the source and are kept apart here.

Tests used:
Assay type in all cases: in vivo, Mycosphaerella graminicola on wheat plants (variety Yuma)
[1] = test system: Mycosphaerella graminicola; Anamorph: Septoria tritici; Bayer Code SEPTTR (standard laboratory isolate, SI SEPTTR); assay: Type A (high volume) assay, leaf blotch of wheat, standard laboratory SEPTTR isolate (SI SEPTTR); settings: standard laboratory isolate, high volume, 50 ppm, 1 Day Protectant, wheat (Yuma); for pest or weed control at 50 ppm: Zymoseptoria tritici, 24 h, read-out: Disease Control, SI SEPTTR Type A Assay (50 ppm) 1 DP
Method: (§1) Example A: Evaluation of Fungicidal Activity: Leaf Blotch of Wheat (Mycosphaerella graminicola; Anamorph: Septoria tritici; Bayer Code SEPTTR)
(§2) For Type A assays, technical grades of the experimental fungicides in Table 4 below were dissolved in acetone, and then mixed with nine volumes of water containing 110 ppm Triton X-100. The fungicide solutions were applied onto wheat seedlings using an automated booth sprayer. For Type B assays, emulsifiable concentrate (EC) formulations of technical grades of the experimental fungicides in Table 4 below were prepared at 10% (w/v), and then mixed with 150 volumes of 0.1% Trycol 5941. These solutions were applied onto wheat seedlings using an automated track sprayer at 200 L/ha. All sprayed plants were allowed to air dry prior to further handling.
(§3) Wheat plants (variety Yuma) were grown from seed in a greenhouse in 50% mineral soil/50% soil-less Metro mix until the first leaf was fully emerged, with 7-10 seedlings per pot. Prior to or after application of experimental fungicides, plants were inoculated either with spores of a standard laboratory SEPTTR isolate (SI SEPTTR) or with spores from a SEPTTR field isolate collected from Wellsbourne, England in 2012 (FI SEPTTR). After inoculation the plants were kept for 3 days at 20° C. in 100% relative humidity (one day in a dark dew chamber followed by two days in a lighted dew chamber). Plants were then transferred to a 20° C. greenhouse for disease development. When disease symptoms were fully expressed on untreated plants, infection levels on treated plants were assessed on a scale of 0 to 100 percent disease severity. Percent disease control was calculated using the ratio of disease severity on treated plants relative to untreated plants.

[2] = Type B (low volume, EC formulation, track sprayer 200 L/ha) assay, leaf blotch of wheat, SEPTTR field isolate (FI SEPTTR); settings: Zymoseptoria tritici, 72 h, field isolate, low volume EC, 100 g/ha, wheat (Yuma)
Method in brief: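 Wheat seedlings (Yuma, first leaf emerged) sprayed with acetone/Triton X-100 solutions (Type A) or 10% EC diluted in 0.1% Trycol at 200 L/ha (Type B), inoculated before or after spraying. Inoculated plants held 3 days at 20 °C, 100% RH, then greenhouse; % disease control from severity versus untreated plants.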

[3] = test system: Mycosphaerella graminicola; Anamorph: Septoria tritici; Bayer Code SEPTTR (standard laboratory isolate, SI SEPTTR); assay: Type B (low volume, EC formulation, track sprayer 200 L/ha) assay, leaf blotch of wheat, standard laboratory SEPTTR isolate (SI SEPTTR); settings: Zymoseptoria tritici, 72 h, standard laboratory isolate, low volume EC, 100 g/ha, wheat (Yuma)
Method: as §1, §2, §3

[4] = 3 Day Curative, read-out: Disease Control, FI SEPTTR Type B Assay (100 g/ha) 3 DC
[5] = 3 Day Protectant, read-out: Disease Control, FI SEPTTR Type B Assay (100 g/ha) 3 DP
[6] = 3 Day Curative, read-out: Disease Control, SI SEPTTR Type B Assay (100 g/ha) 3 DC
[7] = 3 Day Protectant, read-out: Disease Control, SI SEPTTR Type B Assay (100 g/ha) 3 DP

| SMILES | pest or weed control at 50 ppm [1] | also measured |
| --- | --- | --- |
| OC(c1cncnc1)(c1ccc(-c2ccc(Cl)cc2)cn1)C1CC1 (stereo not shown) [Compound 66] | 80 to 100% |  |
| OC(c1cncnc1)(c1ccc(Oc2ccc(C(F)(F)F)cn2)cn1)C1CC1 (stereo not shown) [Compound 67] | < 40% |  |
| CC(C)(C)C(O)(Cc1cncnc1)c1ccc(-c2ccc(OC(F)F)cc2)cn1 (stereo not shown) [Compound 68] | 80 to 100% |  |
| CC(C)C(O)(c1cncnc1)c1ccc(Oc2cccc(Cl)n2)cn1 (stereo not shown) [Compound 69] | 80 to 100% |  |
| CCC(O)(c1cncnc1)c1ccc(Oc2cccc(Cl)n2)cn1 (stereo not shown) [Compound 70] | 40 to 59% |  |
| OC(c1cncnc1)(c1ccc(Oc2cccc(Cl)n2)cn1)C1CC1 (stereo not shown) [Compound 72] | < 40% |  |
| CC(C)C(O)(c1cncnc1)c1ccc(Oc2ccc(C(F)(F)F)cc2)cn1 (stereo not shown) [Compound 75] |  | Disease Control, SI SEPTTR Type A Assay (50 ppm) 1 DP [1]: A (80-100) |
| CC(C)C(O)(c1cccnc1)c1ccc(Oc2ccc(Cl)cn2)cn1 (stereo not shown) [Compound 77] | 80 to 100% |  |
| OC(c1cccnc1)(c1ccc(Oc2ccc(Cl)cn2)cn1)C1CC1 (stereo not shown) [Compound 79] | 80 to 100% |  |
| CC(C)C(O)(c1ccc(-c2ccc(OC(F)F)cc2)cn1)c1cncs1 (stereo not shown) [Compound 85] | 80 to 100% |  |
| CC(C)C(O)(c1ccc(-c2ccc(OC(F)(F)F)cc2)cn1)c1cncs1 (stereo not shown) [Compound 87] | 80 to 100% |  |
| OC(c1ccc(-c2ccc(OC(F)(F)F)cc2)cn1)(c1cncs1)c1ccc(F)cc1F (stereo not shown) [Compound 94] | 60 to 79% |  |
| CC(O)(c1cncnc1)c1ccc(-c2ccc(OC(F)(F)F)cc2)cn1 (stereo not shown) [Compound 99] | 80 to 100% | pest or weed control at 100 g/ha [2, 4]: < 40%; pest or weed control at 100 g/ha [2, 5]: 40 to 59% |
| CN(C)c1ccc(-c2ccc(C(O)(c3cncnc3)C(C)(C)C)nc2)cc1 (stereo not shown) [Compound 100] | 80 to 100% |  |
| CC(C)(C)C(O)(c1cncnc1)c1ccc(-c2ccc(C#N)nc2)cn1 (stereo not shown) [Compound 108] | 60 to 79% |  |
| C=Cc1ccc(-c2ccc(C(O)(c3cncnc3)C(C)(C)C)nc2)cc1 (stereo not shown) [Compound 109] | 60 to 79% |  |
| CC(C)(C)C(O)(c1cncnc1)c1ccc(-c2ccsc2)cn1 (stereo not shown) [Compound 110] | 80 to 100% |  |
| CCOc1ccc(-c2ccc(C(O)(c3cncnc3)C(C)(C)C)nc2)cc1 (stereo not shown) [Compound 111] | 60 to 79% |  |
| CC(C)(C)C(O)(c1cncnc1)c1ccc(-c2cncnc2)cn1 (stereo not shown) [Compound 113] | 60 to 79% |  |
| CC(C)(C)C(O)(c1cncnc1)c1ccc(-c2ccoc2)cn1 (stereo not shown) [Compound 123] | 60 to 79% |  |
| CC(C)(C)C(O)(c1cncnc1)c1ccc(-c2cccnc2)cn1 (stereo not shown) [Compound 126] | 60 to 79% |  |
| CC(C)(C)C(O)(c1cncnc1)c1ccc(-c2cnc3ccccc3c2)cn1 (stereo not shown) [Compound 127] | 80 to 100% |  |
| CC(C)(C)C(O)(c1cncnc1)c1ccc(-c2cnc(C(F)(F)F)cc2C(F)(F)F)cn1 (stereo not shown) [Compound 128] | 80 to 100% |  |
| COc1ncncc1C(O)(c1ccc(-c2ccc(C(C)(C)C#N)cc2C)cn1)C(C)(C)C (stereo not shown) [Compound 129, 2-(4-(6-(1-hydroxy-1-(4-methoxypyrimidin-5-yl)-2,2-dimethylpropyl)pyridin-3-yl)-3-methylphenyl)-2-methylpropanenitrile] | 60 to 79% |  |

| SMILES | pest or weed control at 50 ppm [1] | also measured |
| --- | --- | --- |
| OC(Cc1ccc(F)cc1)(c1cncnc1)c1ccc(-c2ccc(OC(F)(F)F)cc2)cn1 (stereo not shown) [Compound 136] | 80 to 100% |  |
| CC(C)(C)C(O)(c1cncnc1)c1ccc(-c2ccc3c(c2)CCCO3)cn1 (stereo not shown) [Compound 137] | 80 to 100% |  |
| OC(Cc1ccc(F)cc1F)(c1cncnc1)c1ccc(-c2ccc(OC(F)(F)F)cc2)cn1 (stereo not shown) [Compound 138] | 80 to 100% |  |
| OC(Cc1cccc(F)c1)(c1cncnc1)c1ccc(-c2ccc(OC(F)(F)F)cc2)cn1 (stereo not shown) [Compound 139, 2-(3-fluorophenyl)-1-pyrimidin-5-yl-1-[5-[4-(trifluoromethoxy)-phenyl]-2-pyridyl]ethanol] | 80 to 100% |  |
| OC(Cc1ccc(Cl)cc1)(c1cncnc1)c1ccc(-c2ccc(OC(F)(F)F)cc2)cn1 (stereo not shown) [Compound 140] | 80 to 100% |  |
| OC(Cc1cccc(Cl)c1)(c1cncnc1)c1ccc(-c2ccc(OC(F)(F)F)cc2)cn1 (stereo not shown) [Compound 141] | 60 to 79% |  |
| OC(Cc1ccc(Cl)cc1Cl)(c1cncnc1)c1ccc(-c2ccc(OC(F)(F)F)cc2)cn1 (stereo not shown) [Compound 142] | 80 to 100% |  |
| Cc1cncc(C(O)(c2ccc(-c3ccc(OC(F)(F)F)cc3)cn2)C(C)(C)C)c1 (stereo not shown) [Compound 144] | 80 to 100% |  |
| CC(C)(C)C(O)(c1cccnc1)c1ccc(-c2ccc(OC(F)(F)F)cc2F)cn1 (stereo not shown) [Compound 147] | 80 to 100% |  |
| Cc1ccc(C(O)(c2ccc(-c3ccc(OC(F)(F)F)cc3)cn2)C(C)(C)C)cn1 (stereo not shown) [Compound 148] |  | pest or weed control at 100 g/ha [3, 6]: 60 to 79%; pest or weed control at 100 g/ha [3, 7]: < 40%; pest or weed control at 100 g/ha [2, 4]: 60 to 79%; pest or weed control at 100 g/ha [2, 5]: < 40% |
| Cc1ccncc1C(O)(c1ccc(-c2ccc(OC(F)(F)F)cc2)cn1)C(C)(C)C (stereo not shown) [Compound 149] |  | pest or weed control at 100 g/ha [3, 6]: 80 to 100%; pest or weed control at 100 g/ha [3, 7]: 60 to 79%; pest or weed control at 100 g/ha [2, 4]: 80 to 100%; pest or weed control at 100 g/ha [2, 5]: 60 to 79% |
| CC(C)(C)C(O)(c1cncnc1)c1ccc(-c2ccc(OC(F)(F)F)cn2)cn1 (stereo not shown) [Compound 150] | 80 to 100% | pest or weed control at 100 g/ha [2, 4]: 80 to 100%; pest or weed control at 100 g/ha [2, 5]: 80 to 100% |
| CC(C)(C)C(O)(c1cncnc1)c1ccc(-c2ccc(CC#N)cc2)cn1 (stereo not shown) [Compound 153] | 80 to 100% |  |
| CCC(C)(C)C(O)(c1cccnc1)c1ccc(-c2ccc(OC(F)(F)F)cc2)cn1 (stereo not shown) [Compound 154] | 80 to 100% |  |
| CC(F)(F)c1ccc(-c2ccc(C(O)(c3cncnc3)C(C)(C)C)nc2)cc1 (stereo not shown) [Compound 155] | 80 to 100% | pest or weed control at 100 g/ha [2, 4]: 60 to 79%; pest or weed control at 100 g/ha [2, 5]: 60 to 79% |
| CC(C)(C)C(O)(c1cncnc1)c1ccc(-c2ccc(C3(C(F)(F)F)CC3)cc2)cn1 (stereo not shown) [Compound 160] | 80 to 100% | pest or weed control at 100 g/ha [2, 4]: 80 to 100%; pest or weed control at 100 g/ha [2, 5]: 80 to 100% |
| CC(C)(C)C(O)(c1cncnc1)c1ccc(-c2ccc(OC(F)(F)C(F)(F)F)cc2)cn1 (stereo not shown) [Compound 161] | 80 to 100% | pest or weed control at 100 g/ha [2, 4]: 80 to 100%; pest or weed control at 100 g/ha [2, 5]: 80 to 100% |
| COc1ccc(-c2ccc(C(O)(c3cncnc3)C(C)(C)C)nc2)c(F)c1 (stereo not shown) [Compound 162] | 80 to 100% | pest or weed control at 100 g/ha [2, 4]: 80 to 100%; pest or weed control at 100 g/ha [2, 5]: 80 to 100% |
| COc1ccc(-c2ccc(C(O)(c3cncnc3)C(C)(C)C)nc2)c(OC(F)(F)F)c1 (stereo not shown) [Compound 163] | 80 to 100% | pest or weed control at 100 g/ha [2, 4]: 80 to 100%; pest or weed control at 100 g/ha [2, 5]: 80 to 100% |
| COc1ncncc1C(O)(c1ccc(-c2ccc(C(C)(C)C)cc2)cn1)C(C)(C)C (stereo not shown) [Compound 168] | 60 to 79% |  |
| COc1ncncc1C(O)(c1ccc(-c2ccc(C#N)cc2)cn1)C(C)(C)C (stereo not shown) [Compound 170] | 80 to 100% |  |
| COc1ccc(-c2ccc(C(O)(c3cncnc3OC)C(C)(C)C)nc2)cn1 (stereo not shown) [Compound 171] | 80 to 100% |  |
| COc1ncncc1C(O)(c1ccc(-c2ccc(C(F)(F)F)nc2)cn1)C(C)(C)C (stereo not shown) [Compound 172] | 80 to 100% |  |
